# Results: patent US5242938A, “Derivatives of virginiamycin M1” (Merck & Co., Inc., priority 1992, dated 1993)
# Where two headings read alike, the source gives them in different places.
# Tests used:
# [1] = molecular target: T1, CCK-B (guinea pig cortex) (Cavia porcellus, UniProt H0VZC5); test: [125I]BHCCK-8 radioligand binding, guinea pig cortical preparation; settings: read-out: CCK binding inhibition - IC50, [125I]BHCCK
# T1 construct: guinea pig cortical preparations; from tissue; host or cells: guinea pig brain cortex membranes
# T1 sequence (H0VZC5 1-426): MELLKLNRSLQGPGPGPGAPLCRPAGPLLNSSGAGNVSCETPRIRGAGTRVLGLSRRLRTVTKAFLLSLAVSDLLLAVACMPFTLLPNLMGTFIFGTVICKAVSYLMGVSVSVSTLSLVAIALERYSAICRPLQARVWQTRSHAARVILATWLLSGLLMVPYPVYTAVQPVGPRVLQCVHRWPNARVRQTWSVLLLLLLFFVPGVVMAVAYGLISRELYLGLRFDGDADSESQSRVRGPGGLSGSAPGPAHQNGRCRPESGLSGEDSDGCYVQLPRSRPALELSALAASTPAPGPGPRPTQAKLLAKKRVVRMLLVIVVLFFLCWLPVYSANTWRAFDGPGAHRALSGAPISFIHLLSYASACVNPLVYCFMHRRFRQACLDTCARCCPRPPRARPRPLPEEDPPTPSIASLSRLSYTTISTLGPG
# Protocol: (§1) The resulting supernatant was re-spun at 20,000×g for 20 minutes. […] Incubations were for 40 minutes at 4° C. and were terminated by filtration and washing with ice cold 100 mM saline. […] Incubations were for 30 minutes at room temperature and were terminated by filtration over GF/C filters and washing with 100 mM NaCl.
# [2] = molecular target: T1, CCK-B (guinea pig cortex); test: [3H]L-365,260 CCK-B selective antagonist ligand binding, brain membranes; settings: for IC50: read-out: CCK binding inhibition - IC50, [3H]L-365,260
# Protocol: as §1
# CCK-A (rat pancreas) [3] = molecular target: T2, CCK-A (rat pancreas) (Rattus norvegicus, UniProt P30551); test: [125I]BHCCK-8 radioligand binding, rat pancreatic preparation; settings: read-out: CCK binding inhibition - IC50, [125I]BHCCK
# T2 construct: from tissue; host or cells: rat pancreas
# T2 sequence (P30551 1-444): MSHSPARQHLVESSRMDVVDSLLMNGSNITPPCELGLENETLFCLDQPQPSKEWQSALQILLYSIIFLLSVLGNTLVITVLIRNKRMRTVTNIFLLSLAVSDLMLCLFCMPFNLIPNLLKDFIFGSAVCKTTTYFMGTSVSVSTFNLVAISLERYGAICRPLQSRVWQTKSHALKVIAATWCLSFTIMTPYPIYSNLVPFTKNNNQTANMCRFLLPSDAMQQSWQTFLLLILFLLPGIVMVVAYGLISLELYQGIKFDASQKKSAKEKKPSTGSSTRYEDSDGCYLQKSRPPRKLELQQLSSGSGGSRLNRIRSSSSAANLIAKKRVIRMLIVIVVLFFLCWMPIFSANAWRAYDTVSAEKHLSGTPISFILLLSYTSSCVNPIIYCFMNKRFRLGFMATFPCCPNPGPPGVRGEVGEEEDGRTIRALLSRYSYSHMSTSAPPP
# Protocol: as §1
# CCK-A (rat pancreas) [4] = molecular target: T2, CCK-A (rat pancreas); test: [3H]L-364,718 CCK-A selective antagonist ligand binding, pancreas; settings: read-out: CCK binding inhibition - IC50, [3H]L-364,718
# Protocol: as §1
# Bacillus sp. (Mb 633) = test: Agar diffusion disc assay, Baci 633; assay type: cell-based; settings: @ 20 g/disc; for zone of inhibition at 20 µg/disc: Bacillus, 18 h, read-out: Inhibition zone diameter, Baci 633
# Protocol: (§2) Cultures employed in evaluating antimicrobial activity included plant pathogens, human and animal opportunistic pathogens and selected laboratory strains having specific-antibiotic sensitivities or chromosomal or R-plasmid-mediated resistances. […] The agar diffusion MIC's were determined using the method described by Barry in Anitbiotics in Laboratory Medicine, 2nd Ed., Ed. V. Lorian, pp. 1-63, William & Wilkins, Baltimore, 1986. Each test compound was dissolved in methanol to a concentration of 1 mg/ml. Serial dilutions of these compounds were also made to determine an agar diffusion MIC. 20 μl of each dilution was pipetted on to 6 mm paper discs, air dried and placed onto the surface of an agar plate seeded with the appropriate bacteria (~10^6 cfu). Seeded agar plates were incubated overnight (~18 hours) at 25° C. Zone sizes were measured to the nearest mm. Each compound was tested in triplicate and the results shown represent the mean.
# [5] = test system: Staphylococcus aureus (Mb 108, ATCC 6538P); test: Agar diffusion disc assay, Sta 108; assay type: cell-based; settings: for zone of inhibition at 20 µg/disc: Staphylococcus aureus, ATCC6538P, 18 h
# Protocol: as §2
# [6] = test system: Bacillus subtilis (Mb 964, ATCC 6633); test: Agar diffusion disc assay, Subt 964; assay type: cell-based; settings: for zone of inhibition at 20 µg/disc: Bacillus subtilis, ATCC6633, 18 h, read-out: Inhibition zone diameter, Subt 964
# Protocol: as §2
# [7] = test system: Micrococcus luteus (Mb 1101, ATCC 9341); test: Agar diffusion disc assay, Micr 1101; assay type: cell-based
# Protocol: as §2
# [8] = test system: Staphylococcus aureus (Mb 2983); test: Agar diffusion disc assay, Sta 2983; assay type: cell-based; settings: for zone of inhibition at 20 µg/disc: Staphylococcus aureus, 18 h
# Protocol: as §2
# [9] = test system: Corynebacterium pseudodiphtheriticum (Mb 261, ATCC 9742); test: Agar diffusion disc assay, Cory 261; assay type: cell-based; design: Inhibition zone diameter, Cory 261: dose or concentration left out as unconfirmed; settings: for zone of inhibition at 20 µg/disc: Corynebacterium pseudodiphtheriticum, ATCC9742, 18 h
# Protocol: as §2
# [10] = test system: Streptococcus faecium (Mb 2820); test: Agar diffusion disc assay, Str 2820; assay type: cell-based; design: Inhibition zone diameter, Str 2820: dose or concentration left out as unconfirmed; settings: for zone of inhibition at 20 µg/disc: Enterococcus faecium, 18 h
# Protocol: as §2
# [11] = test system: Streptococcus agalactiae (Mb 2875); test: Agar diffusion disc assay, Str 2875; assay type: cell-based; settings: for zone of inhibition at 20 µg/disc: Streptococcus agalactiae, 18 h
# Protocol: as §2
# [12] = test system: Salmonella gallinarum (Mb 1287); test: Agar diffusion disc assay, Salm 1287; assay type: cell-based; settings: for zone of inhibition at 20 µg/disc: Salmonella enterica, GALLINARUM, 18 h, read-out: Inhibition zone diameter, Salm 1287
# Protocol: as §2
# [13] = test system: Escherichia coli (Mb 1418); test: Agar diffusion disc assay, Coli 1418; assay type: cell-based; settings: for zone of inhibition at 20 µg/disc: Escherichia coli, 18 h
# Protocol: as §2
# [14] = test system: Pseudomonas stutzeri (Mb 1231, ATCC 11607); test: Agar diffusion disc assay, Pseu 1231; assay type: cell-based; settings: for zone of inhibition at 20 µg/disc: Stutzerimonas stutzeri, ATCC11607, 18 h
# Protocol: as §2
# [15] = test system: En terobacter aergenes (Mb 835); test: Agar diffusion disc assay, Ent 835; assay type: cell-based; settings: for zone of inhibition at 20 µg/disc: 18 h, read-out: Inhibition zone diameter, Ent 835
# Protocol: as §2
structure (smiles),measurement,setting,value
CC1=C\[C@@H](OC(=O)Nc2ccc([N+](=O)[O-])cc2)CC(=O)Cc2nc(co2)C(=O)N2CCC=C2C(=O)O[C@H](C(C)C)[C@H](C)/C=C/C(=O)NC\C=C\1 [Example 10],IC50,[1],1.6 µM
same,"A.R. = agonist ratio = IC50([3H]L365,260)/IC50([125I]CCK)",[2],8.7
same,IC50,[2],13.1 µM
same,IC50,CCK-A (rat pancreas) [3],> 3 µM
same,IC50,CCK-A (rat pancreas) [4],> 3 µM
same,zone of inhibition at 20 µg/disc,Bacillus sp. (Mb 633),0 mm
same,zone of inhibition at 20 µg/disc,"[5]; @ 20 g/disc, read-out: Inhibition zone diameter, Sta 108",9 mm
same,zone of inhibition at 20 µg/disc,[6]; @ 20 g/disc,0 mm
same,zone of inhibition at 20 µg/disc,"[7]; Micrococcus luteus, ATCC9341, 18 h; @ 20 g/disc; read-out: Inhibition zone diameter, Micr 1101",13 mm
same,MIC,"[7]; Micrococcus luteus, ATCC9341, 18 h; read-out: Agar Diffusion MIC versus Micrococcus luteus",3.94 µM
same,zone of inhibition at 5 µg/disc,"[7]; Micrococcus luteus, ATCC9341; 5.00 μg/disc; 25° C., ~18 hours; read-out: Mean of triplicate zone size versus Micrococcus luteus",7 mm
same,zone of inhibition at 10 µg/disc,"[7]; Micrococcus luteus, ATCC9341; 10.0 μg/disc; 25° C., ~18 hours; read-out: Mean of triplicate zone size versus Micrococcus luteus",10 mm
same,zone of inhibition at 20 µg/disc,"[7]; Micrococcus luteus, ATCC9341; 20.0 μg/disc; 25° C., ~18 hours; read-out: Mean of triplicate zone size versus Micrococcus luteus",12 mm
same,zone of inhibition at 20 µg/disc,"[8]; @ 20 g/disc, read-out: Inhibition zone diameter, Sta 2983",0 mm
same,zone of inhibition at 20 µg/disc,"[9]; @ 20 g/disc, read-out: Inhibition zone diameter, Cory 261",9 mm
same,zone of inhibition at 20 µg/disc,"[10]; @ 20 g/disc, read-out: Inhibition zone diameter, Str 2820",0 mm
same,zone of inhibition at 20 µg/disc,"[11]; @ 20 g/disc, read-out: Inhibition zone diameter, Str 2875",0 mm
same,zone of inhibition at 20 µg/disc,[12]; @ 20 g/disc,0 mm
same,zone of inhibition at 20 µg/disc,"[13]; @ 20 g/disc, read-out: Inhibition zone diameter, Coli 1418",0 mm
same,zone of inhibition at 20 µg/disc,"[14]; @ 20 g/disc, read-out: Inhibition zone diameter, Pseu 1231",0 mm
same,zone of inhibition at 20 µg/disc,[15]; @ 20 g/disc,0 mm
CC1=C\[C@@H](OC(=O)Cc2ccccc2)CC(=O)Cc2nc(co2)C(=O)N2CCC=C2C(=O)O[C@H](C(C)C)[C@H](C)/C=C/C(=O)NC\C=C\1 [Example 5],IC50,[1],0.6 µM
same,"A.R. = agonist ratio = IC50([3H]L365,260)/IC50([125I]CCK)",[2],~ 10
same,"percentage in parentheses beside >3.0, [3H]L-365,260 (inhibition at top concentration, not defined)",[2]; beside IC50 >3.0,40%
same,IC50,[2],> 3 µM
same,IC50,CCK-A (rat pancreas) [3],> 3 µM
same,IC50,CCK-A (rat pancreas) [4],> 3 µM
same,zone of inhibition at 20 µg/disc,Bacillus sp. (Mb 633),0 mm
same,zone of inhibition at 20 µg/disc,"[5]; read-out: Inhibition zone diameter, Sta 108, @ 20 g/disc",0 mm
same,zone of inhibition at 20 µg/disc,[6],0 mm
same,MIC,"[7]; Micrococcus luteus, ATCC9341, 18 h, read-out: Agar Diffusion MIC versus Micrococcus luteus",0.41 µM
same,zone of inhibition at 20 µg/disc,"[7]; Micrococcus luteus, ATCC9341, 18 h, read-out: Inhibition zone diameter, Micr 1101, @ 20 g/disc",12 mm
same,zone of inhibition at 5 µg/disc,"[7]; Micrococcus luteus, ATCC9341, 18 h, read-out: Mean of triplicate zone size versus Micrococcus luteus, 5.00 μg/disc; 25° C., ~18 hours",10 mm
same,zone of inhibition at 20 µg/disc,"[7]; Micrococcus luteus, ATCC9341, 18 h, read-out: Mean of triplicate zone size versus Micrococcus luteus, 20.0 μg/disc; 25° C., ~18 hours",13 mm
same,zone of inhibition at 40 µg/disc,"[7]; Micrococcus luteus, ATCC9341, 18 h, read-out: Mean of triplicate zone size versus Micrococcus luteus, 40.0 μg/disc; 25° C., ~18 hours",14 mm
same,zone of inhibition at 80 µg/disc,"[7]; Micrococcus luteus, ATCC9341, 18 h, read-out: Mean of triplicate zone size versus Micrococcus luteus, 80.0 μg/disc; 25° C., ~18 hours",14 mm
same,zone of inhibition at 20 µg/disc,"[8]; read-out: Inhibition zone diameter, Sta 2983, @ 20 g/disc",0 mm
same,zone of inhibition at 20 µg/disc,"[9]; read-out: Inhibition zone diameter, Cory 261, @ 20 g/disc",0 mm
same,zone of inhibition at 20 µg/disc,"[10]; read-out: Inhibition zone diameter, Str 2820, @ 20 g/disc",0 mm
same,zone of inhibition at 20 µg/disc,"[11]; read-out: Inhibition zone diameter, Str 2875, @ 20 g/disc",0 mm
same,zone of inhibition at 20 µg/disc,[12],0 mm
same,zone of inhibition at 20 µg/disc,"[13]; read-out: Inhibition zone diameter, Coli 1418, @ 20 g/disc",0 mm
same,zone of inhibition at 20 µg/disc,"[14]; read-out: Inhibition zone diameter, Pseu 1231, @ 20 g/disc",0 mm
same,zone of inhibition at 20 µg/disc,[15],0 mm
"CC1=C\[C@@H](O)CC(O)Cc2nc(co2)C(=O)N2CCC=C2C(=O)O[C@H](C(C)C)[C@H](C)/C=C/C(=O)NC\C=C\1 (single isomer, unassigned) [Example 14B]",IC50,[1],0.4 µM
same,"A.R. = agonist ratio = IC50([3H]L365,260)/IC50([125I]CCK)",[2],1
same,IC50,[2],0.53 µM
same,IC50,CCK-A (rat pancreas) [3],> 3 µM
same,IC50,CCK-A (rat pancreas) [4],> 3 µM
same,"Inhibition zone diameter, Baci 633",Bacillus sp. (Mb 633),0 mm
same,"Inhibition zone diameter, Sta 108",[5]; @ 20 g/disc,22 mm
same,"Inhibition zone diameter, Subt 964",[6]; @ 20 g/disc,0 mm
same,Mean of triplicate zone size versus Micrococcus luteus,"[7]; 1.25 μg/disc; 25° C., ~18 hours",22 mm
same,Mean of triplicate zone size versus Micrococcus luteus,"[7]; 2.50 μg/disc; 25° C., ~18 hours",25 mm
same,Mean of triplicate zone size versus Micrococcus luteus,"[7]; 5.00 μg/disc; 25° C., ~18 hours",28 mm
same,Mean of triplicate zone size versus Micrococcus luteus,"[7]; 10.0 μg/disc; 25° C., ~18 hours",30 mm
same,Mean of triplicate zone size versus Micrococcus luteus,"[7]; 20.0 μg/disc; 25° C., ~18 hours",32 mm
same,"Inhibition zone diameter, Micr 1101",[7]; @ 20 µg/disc,35 mm
same,MIC,[7]; read-out: Agar Diffusion MIC versus Micrococcus luteus,0.24 µM
same,"Inhibition zone diameter, Sta 2983",[8]; @ 20 g/disc,11 mm
same,"Inhibition zone diameter, Cory 261",[9],26 mm
same,"Inhibition zone diameter, Str 2820",[10],15 mm
same,"Inhibition zone diameter, Str 2875",[11]; @ 20 µg/disc,18 mm
same,"Inhibition zone diameter, Salm 1287",[12]; @ 20 g/disc,0 mm
same,"Inhibition zone diameter, Coli 1418",[13]; @ 20 g/disc,0 mm
same,"Inhibition zone diameter, Pseu 1231",[14]; @ 20 g/disc,0 mm
same,"Inhibition zone diameter, Ent 835",[15]; @ 20 g/disc,0 mm
